Source: patent US20250034136A1 (Nimbus Wadjet, Inc., priority 2023, published 2025)

How the values were obtained:
[1] = molecular target: WRN (BV08), human Werner helicase (Uniprot Q14191, amino acids 517-1235 with L1074F point mutation) (Homo sapiens (Human), UniProt Q14191, L1074F); experiment: WRN (BV08) ADP-Glo assay; assay type: biochemical; conditions: class symbols A-E, read-out: ADP-Glo_hWRN_IC50
[2] = system: p21 induction in HCT116 cells; experiment: p21 induction in HCT116 cells; assay type: cell-based; conditions: Homo sapiens, HCT-116, 24 h, HCT116 cells, 24 h compound incubation; read-out: P21_EC50
Method in brief: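 EC50 from non-linear curve fit of p21 immunofluorescence (800 nm), with GAPDH (700 nm) read alongside. DMSO and a reference WRN inhibitor served as low and high controls. Cells (2,000/well) got 11 compound concentrations in duplicate for 24 h at 37 °C.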

Chain of WRN (BV08), human Werner helicase (Uniprot Q14191, amino acids 517-1235 with L1074F point mutation) (Q14191 other isoform, or with tags, fused parts or gaps L1074F (already in the parent)): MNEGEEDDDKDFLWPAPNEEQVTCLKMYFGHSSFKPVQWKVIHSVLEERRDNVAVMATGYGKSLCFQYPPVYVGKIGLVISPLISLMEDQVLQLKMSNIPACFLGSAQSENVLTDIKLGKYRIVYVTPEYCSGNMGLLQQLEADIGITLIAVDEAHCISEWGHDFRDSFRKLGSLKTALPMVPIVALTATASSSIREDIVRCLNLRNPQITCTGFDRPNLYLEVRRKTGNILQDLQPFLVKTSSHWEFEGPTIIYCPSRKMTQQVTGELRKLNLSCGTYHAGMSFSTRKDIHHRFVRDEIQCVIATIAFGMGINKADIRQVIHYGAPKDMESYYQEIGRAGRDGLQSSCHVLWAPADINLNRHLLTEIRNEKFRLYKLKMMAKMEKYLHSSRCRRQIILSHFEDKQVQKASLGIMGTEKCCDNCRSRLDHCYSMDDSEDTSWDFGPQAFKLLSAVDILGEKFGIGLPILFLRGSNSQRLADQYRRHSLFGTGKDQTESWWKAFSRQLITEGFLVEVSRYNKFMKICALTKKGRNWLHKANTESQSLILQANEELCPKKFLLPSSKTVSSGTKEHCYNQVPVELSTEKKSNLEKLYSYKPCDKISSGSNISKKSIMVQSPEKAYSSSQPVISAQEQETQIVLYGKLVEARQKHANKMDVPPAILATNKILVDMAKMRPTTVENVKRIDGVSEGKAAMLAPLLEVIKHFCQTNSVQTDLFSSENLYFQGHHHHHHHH

Compound	IC50 [1] [nM]	EC50 [2] [nM]
CCc1c(N2CCN(C(=O)c3ncnc(C)c3O)C[C@H]2C)c(=O)c2nc(N(C)C)cnc2n1CC(=O)Nc1ccc(C(F)(F)F)cc1Cl [I-99, (R)—N-(2-chloro-4-(trifluoromethyl)phenyl)-2-(2-(dimethylamino)-6-ethyl-7-(4-(5-hydroxy-6-methylpyrimidine-4-carbonyl)-2-methylpiperazin-1-yl)-8-oxopyrido[2,3-b]pyrazin-5(8H)-yl)acetamide]	5 to 50	> 5000
CCc1c(N2CCN(C(=O)c3ncnc(C)c3O)[C@H]3CC[C@@H]32)c(=O)c2nc(C3CC3)cnc2n1CC(=O)Nc1ccc(C(F)(F)F)cc1Cl [I-100, N-(2-chloro-4-(trifluoromethyl)phenyl)-2-(2-cyclopropyl-6-ethyl-7-((1S,6S)-5-(5-hydroxy-6-methylpyrimidine-4-carbonyl)-2,5-diazabicyclo[4.2.0]octan-2-yl)-8-oxopyrido[2,3-b]pyrazin-5(8H)-yl)acetamide]	≤ 5	< 500
CCc1c(N2CCN(C(=O)c3ncnc(C)c3O)[C@H]3CC[C@@H]32)c(=O)c2nc(OC3CC3)cnc2n1CC(=O)Nc1ccc(C(F)(F)F)cc1Cl [I-102, N-(2-chloro-4-(trifluoromethyl)phenyl)-2-(2-cyclopropoxy-6-ethyl-7-((1S,6S)-5-(5-hydroxy-6-methylpyrimidine-4-carbonyl)-2,5-diazabicyclo[4.2.0]octan-2-yl)-8-oxopyrido[2,3-b]pyrazin-5(8H)-yl)acetamide]	≤ 5	< 500
CCc1c(N2CCN(C(=O)c3ncnc(C)c3O)[C@H]3CC[C@@H]32)c(=O)c2nc(N(C)C)cnc2n1CC(=O)Nc1ccc(C(F)(F)F)cc1C [I-103, 2-(2-(dimethylamino)-6-ethyl-7-((1S,6S)-5-(5-hydroxy-6-methylpyrimidine-4-carbonyl)-2,5-diazabicyclo[4.2.0]octan-2-yl)-8-oxopyrido[2,3-b]pyrazin-5(8H)-yl)-N-(2-methyl-4-(trifluoromethyl)phenyl)acetamide]	5 to 50	< 500
CCc1c(N2CCN(C(=O)c3ncnc(C)c3O)[C@H]3CC[C@@H]32)c(=O)c2nc(N(C)C)cnc2n1CC(=O)Nc1ccc(C(F)(F)F)cc1 [I-104, 2-(2-(dimethylamino)-6-ethyl-7-((1S,6S)-5-(5-hydroxy-6-methylpyrimidine-4-carbonyl)-2,5-diazabicyclo[4.2.0]octan-2-yl)-8-oxopyrido[2,3-b]pyrazin-5(8H)-yl)-N-(4-(trifluoromethyl)phenyl)acetamide]	5 to 50	< 500
CCc1c(N2CCN(C(=O)c3ncnc(C)c3O)[C@H]3CC[C@@H]32)c(=O)c2nc(N3CCCC3)cnc2n1CC(=O)Nc1ccc(C(F)(F)F)cc1Cl [I-105, N-(2-chloro-4-(trifluoromethyl)phenyl)-2-(6-ethyl-7-((1S,6S)-5-(5-hydroxy-6-methylpyrimidine-4-carbonyl)-2,5-diazabicyclo[4.2.0]octan-2-yl)-8-oxo-2-(pyrrolidin-1-yl)pyrido[2,3-b]pyrazin-5(8H)-yl)acetamide]	5 to 50	< 500
CCc1c(N2CCN(C(=O)c3ncnc(C)c3O)[C@H]3CC[C@@H]32)c(=O)c2nc(N(C)C)c(C)nc2n1CC(=O)Nc1ccc(C(F)(F)F)cc1Cl [I-107, N-(2-chloro-4-(trifluoromethyl)phenyl)-2-(2-(dimethylamino)-6-ethyl-7-((1S,6S)-5-(5-hydroxy-6-methylpyrimidine-4-carbonyl)-2,5-diazabicyclo[4.2.0]octan-2-yl)-3-methyl-8-oxopyrido[2,3-b]pyrazin-5(8H)-yl)acetamide]	≤ 5	< 500
CCc1c(N2CCN(C(=O)c3ncnc(C)c3O)CC2)c(=O)c2nc(N(C)C)cnc2n1CC(=O)NC12CC(C(F)(F)F)(C1)C2 [I-108, 2-(2-(dimethylamino)-6-ethyl-7-(4-(5-hydroxy-6-methylpyrimidine-4-carbonyl)piperazin-1-yl)-8-oxopyrido[2,3-b]pyrazin-5(8H)-yl)-N-(3-(trifluoromethyl)bicyclo[1.1.1]pentan-1-yl)acetamide]	100 to 500	> 5000
